The values below come from ChEMBL document CHEMBL1132323, “Anti-Helicobacter pylori agents. 3. 2-[(Arylalkyl)guanidino]-4-furylthiazoles” (1999).

What is called MIC is the least concentration at which growth counts as inhibited. Read a low MIC as a more susceptible organism. What is called inhibition in vivo is the drop in the measured response relative to a control, in per cent. As a reminder, the inhibition is the percentage by which the read-out fell short of the control.

Values after ≈ are worked out from the molar mass of the structure shown.

Test [1] concerns Helicobacter pylori. Briefly: Minimum inhibitory concentration that inhibited macroscopic colony growth of Helicobacter pylori. The format is functional.
Test [2] has as its system Helicobacter pylori. Nature of the test: Antimicrobial activity against Helicobacter pylori. The format is functional.
Test [3] concerns Neisseria gonorrhoeae. Nature of the test: Antimicrobial activity against Neisseria gonorrhoeae. The format is functional.
Test [4] deals with Clostridium perfringens. Nature of the test: (§1) Antimicrobial activity against Clostridium perfringens. The test is classed as functional.
Test [5] has as its system Campylobacter jejuni. Nature of the test: Antimicrobial activity against Campylobacter jejuni. The format is functional.
The subject of test [6] is Neisseria meningitidis. Nature of the test: Antimicrobial activity against Neisseria meningitidis. The test is classed as functional.
Test [7] concerns Clostridioides difficile. Briefly: (§2) Antimicrobial activity against Clostridium difficile. The test is classed as functional.
The test system of test [8] is Bacteroides fragilis. Nature of the test: Antimicrobial activity against Bacteroides fragilis. The test is classed as functional.
Test [9] relates to Rattus norvegicus. Nature of the test: Inhibition of histamine stimulated gastric acid secretion in lumen perfused stomach of anesthetized rats at 1 mg/kg i.v. dose. The following applies: route intravenous. The format is functional.
Test [10] deals with Histamine H2 receptor (Cavia porcellus) (UniProt P47747). Briefly: Histamine H2 receptor antagonism in isolated guinea pig right atrium at concentration of 1*10e-6 g/mL of histamine hydrochloride. The format is functional, tissue-based. The following applies: Cardiac atrium.
Histamine H2 receptor (Cavia porcellus), sequence (P47747 whole entry): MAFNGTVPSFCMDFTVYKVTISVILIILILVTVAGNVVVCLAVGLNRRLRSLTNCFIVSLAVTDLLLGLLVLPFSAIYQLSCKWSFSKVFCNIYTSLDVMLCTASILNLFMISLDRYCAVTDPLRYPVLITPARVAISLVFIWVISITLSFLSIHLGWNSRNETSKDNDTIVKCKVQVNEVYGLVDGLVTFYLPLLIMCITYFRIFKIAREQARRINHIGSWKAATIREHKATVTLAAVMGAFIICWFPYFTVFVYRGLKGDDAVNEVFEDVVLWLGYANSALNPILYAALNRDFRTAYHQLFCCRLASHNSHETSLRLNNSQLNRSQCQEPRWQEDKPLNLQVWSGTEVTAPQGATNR
For test [11], the system named is Clostridium perfringens. Described as §1. The test is classed as functional, organism-based.
For test [12], the system named is Clostridioides difficile. The description is as §2. The format is functional, organism-based.

The compound `Cc1ncc([N+](=O)[O-])n1CCO` [METRONIDAZOLE] gave an MIC in [1] of 5.4 µg/mL (≈ 31.6 µM).
With `CC1(C)S[C@@H]2[C@H](NC(=O)[C@H](N)c3ccc(O)cc3)C(=O)N2[C@H]1C(=O)O` [AMOXICILLIN], the MIC in test [2] came out at 0.021 µg/mL (≈ 0.0575 µM); in test [3], 7.7 µg/mL (≈ 21.1 µM); in [4], 0.027 µg/mL (≈ 0.0739 µM); in [5] it was 2.2 µg/mL (≈ 6.02 µM); in test [6], 0.056 µg/mL (≈ 0.153 µM); in test [7], 0.28 µg/mL (≈ 0.766 µM). For the same compound, the MIC in test [8] stood at 2.1 µg/mL (≈ 5.75 µM).
The compound “(2,5-Dihydroxy-4,7-dioxo-[1,3,2]dioxabismepan-5-yl)-acetic acid” displayed an MIC in test [1] of 18 µg/mL.
Consider `COc1ccc(CC/N=C(\N)Nc2nc(-c3ccc(CNC(C)=O)o3)cs2)cc1`, for which, in test [9], testing at 1 mg/kg gave an inhibition in vivo of 5%. This compound registered an inhibition in test [10] of 27%. Further, the MIC in test [1] was found to be 0.9 µg/mL (≈ 2.18 µM).
`CC(=O)NCc1ccc(-c2csc(NC(=N)NCc3ccccc3Cl)n2)o1` registered an inhibition in [10] of 50%.
In turn, `COc1ccccc1CC/N=C(\N)Nc1nc(-c2ccc(CNC(C)=O)o2)cs1` had an inhibition in vivo at 1 mg/kg in test [9] of 54%. In [10], this compound yielded an inhibition of 67%. The MIC in test [1] was 0.052 µg/mL (≈ 0.126 µM).
Consider `COc1ccccc1CC/N=C(\N)Nc1nc(-c2cc(C)c(CNC(C)=O)o2)cs1`, for which the inhibition in test [10] was 0%. In test [1], this compound had an MIC of 0.03 µg/mL (≈ 0.0702 µM).
Consider `CC(=O)NCc1ccc(-c2csc(NC(=N)NCc3ccccc3)n2)o1`, for which, in test [10], the inhibition was 35%.
In test [9], `CC(=O)NCc1ccc(-c2csc(NC(=N)NCCc3ccco3)n2)o1` came in with an inhibition in vivo at 1 mg/kg of 0%. The compound also gave an inhibition in test [10] of 63%. The compound further registered an MIC in test [1] of 0.24 µg/mL (≈ 0.643 µM).
As for `CC(=O)NCc1ccc(-c2csc(NC(=N)NCc3ccccc3O)n2)o1`, in [1], the MIC was 5.8 µg/mL (≈ 15 µM).
Take `CC(=O)NCc1ccc(-c2csc(NC(=N)NCCCc3ccccc3)n2)o1`: the inhibition in test [10] is 40%.
Take `CC[C@H]1OC(=O)[C@H](C)[C@@H](O[C@H]2C[C@@](C)(OC)[C@@H](O)[C@H](C)O2)[C@H](C)[C@@H](O[C@@H]2O[C@H](C)C[C@H](N(C)C)[C@H]2O)[C@](C)(OC)C[C@@H](C)C(=O)[C@H](C)[C@@H](O)[C@]1(C)O` [CLARITHROMYCIN]: in test [1], it took 0.057 µg/mL (≈ 0.0762 µM) to inhibit growth (MIC).
Take BISMUTH SUBSALICYLATE: the MIC in test [2] was 8.7 µg/mL; in test [3] it was 4.7 µg/mL; in test [5], 7.4 µg/mL; in [6], 12.5 µg/mL; in test [11] it was > 100 µg/mL; in test [8] it was 50 µg/mL. Further, 50 µg/mL was the least that counted as inhibitory in [12] (MIC).
As to `COc1ccc(C/N=C(\N)Nc2nc(-c3ccc(CNC(C)=O)o3)cs2)cc1`, in test [1], the minimal inhibitory concentration (MIC) is 0.28 µg/mL (≈ 0.701 µM).
On the same count and under the same terms, the figure for `COc1ccccc1CC/N=C(\N)Nc1nc(-c2cc(-c3ccccc3)c(CNC(C)=O)o2)cs1` is 9.47 µg/mL (≈ 19.3 µM).
Same read-out and setting: the figure for `CC(=O)NCc1ccc(-c2csc(NC(=N)NCCc3ccccc3N)n2)o1` is 1.01 µg/mL (≈ 2.53 µM); for `CC(=O)NCc1ccc(-c2csc(NC(=N)NCCNc3ccccc3)n2)o1` it is 1.79 µg/mL (≈ 4.49 µM).
With `COc1cccc(C/N=C(\N)Nc2nc(-c3ccc(CNC(C)=O)o3)cs2)c1`, the inhibition in [10] stood at 28%.
In test [9], `CC(=O)NCc1ccc(-c2csc(NC(=N)NCCc3cccs3)n2)o1` had an inhibition in vivo at 1 mg/kg of 21%. The inhibition in test [10] is 83%. In test [1], this compound showed an MIC of 0.112 µg/mL (≈ 0.288 µM).
The compound `CC(=O)NCc1ccc(-c2csc(NC(=N)NCCc3ccccc3)n2)o1` had an inhibition in vivo at 1 mg/kg in test [9] of 24%. This compound also came in with an inhibition in test [10] of 71%. Besides, 0.13 µg/mL (≈ 0.339 µM) was the least that counted as inhibitory in test [1] (MIC).
In turn, `CC(=O)NCc1ccc(-c2csc(NC(=N)NCCc3ccccc3NC(C)=O)n2)o1` came in with an MIC in test [1] of 4.1 µg/mL (≈ 9.31 µM).
`COc1ccccc1C/N=C(\N)Nc1nc(-c2ccc(CNC(C)=O)o2)cs1` yielded an inhibition in test [10] of 26%.
`COc1cccc(CC/N=C(\N)Nc2nc(-c3ccc(CNC(C)=O)o3)cs2)c1` came in with an inhibition in vivo at 1 mg/kg in test [9] of 65%. The same compound came in with an inhibition in test [10] of 70%. The compound further registered an MIC in test [1] of 0.36 µg/mL (≈ 0.871 µM).
In [1], `COc1ccccc1/N=C(\N)Nc1nc(-c2ccc(CNC(C)=O)o2)cs1` returned an MIC of 0.24 µg/mL (≈ 0.623 µM).
On to `CCOc1ccccc1C/N=C(\N)Nc1nc(-c2ccc(CNC(C)=O)o2)cs1`, for which the inhibition in test [10] turned out to be 42%.
With `CC(=O)NCc1ccc(-c2csc(NC(=N)NCc3ccccc3C)n2)o1`, the inhibition in test [10] stood at 88%.
Compound `COc1ccccc1CC/N=C(\N)Nc1nc(-c2cc(CNC(C)=O)co2)cs1` registered an MIC in test [1] of 2.21 µg/mL (≈ 5.34 µM).
For `CC(=O)NCc1ccc(-c2csc(NC(=N)NCCc3ccccn3)n2)o1`, the inhibition in test [10] was found to be 0%. The compound further displayed an MIC in [1] of 0.73 µg/mL (≈ 1.9 µM).
In the case of `COc1ccccc1CC/N=C(\N)Nc1nc(-c2cc(CNC(C)=O)c(C)o2)cs1`, the MIC in test [3] is > 100 µg/mL; in [4] it was > 100 µg/mL; in test [5], 23 µg/mL (≈ 53.8 µM); in test [6], > 100 µg/mL; in test [7] it was > 100 µg/mL; in test [8], > 100 µg/mL. For the same compound, in test [1], the lowest concentration to inhibit growth (MIC) was 0.046 µg/mL (≈ 0.108 µM). This compound yielded an inhibition in [10] of 0%.
`CC(=O)NCc1ccc(-c2csc(NC(=N)NCCc3ccccc3[N+](=O)[O-])n2)o1` had an inhibition in vivo at 1 mg/kg in test [9] of 39%. Moreover, in [10], the inhibition was 66%. In [1], the MIC was determined as 0.14 µg/mL (≈ 0.327 µM).
In [10], `CC(=O)NCc1ccc(-c2csc(NC(=N)NCc3ccco3)n2)o1` came in with an inhibition of 46%.
For the compound `CC(=O)NCc1ccc(-c2csc(NC(=N)NCCc3ccncc3)n2)o1`, the MIC in test [1] was found to be 1.92 µg/mL (≈ 4.99 µM).
On the same count and under the same terms, the figure for `COc1ccccc1OCC/N=C(\N)Nc1nc(-c2ccc(CNC(C)=O)o2)cs1` is 2.5 µg/mL (≈ 5.82 µM).
The compound `CN/C(=N\CCSCc1nc[nH]c1C)NC#N` [CIMETIDINE] had an inhibition in vivo at 1 mg/kg in [9] of 53%. Further, in test [1], 1130 µg/mL (≈ 4480 µM) was the least that counted as inhibitory (MIC).
`CC(=O)NCc1ccc(-c2csc(NC(=N)NCCc3c[nH]cn3)n2)o1` showed an MIC in test [1] of 31 µg/mL (≈ 83 µM).
